Measured values reported in PubChem BioAssay (NCI).
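1) Cells in 96-well plates. 2) Compound, 48 h, 5 concentrations. 3) Linear interpolation between surrounding doses. 4) Unreached endpoint = highest concentration. TGI is the concentration that stops growth completely.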

Tested on: RXF-631 renal
Assay: NCI-60 cell line screen, 48 h

Row | Compound | TGI
1 | CCCCC/C=C1\CCC(CN2CCOCC2)C1=O (stereo unspecified) | 44.9 µM
2 | CN1C(=O)c2cccc3c([N+](=O)[O-])ccc(c23)C1=O | 17.6 µM
3 | CCCC/C=C1\CCC(CN2CCOCC2)C1=O (stereo unspecified) | 29.2 µM
4 | O=c1[nH]nc2c3n[nH]c(=O)n3c3ccccc3n12 | > 100 µM
5 | O=C1c2ccccc2C(=O)N1C/C=N/NS(=O)(=O)c1ccc(Cl)cc1 | > 100 µM
6 | CCOC(=O)NC(=O)c1cn(-c2ccc(CCOC(=O)CCCCCCCCC(=O)OCCc3ccc(-n4cc(C(=O)NC(=O)OCC)c(=O)[nH]c4=O)cc3)cc2)c(=O)[nH]c1=O | > 100 µM
